Reference: US20080009418A1, “Selective Inhibitors” (Alchemia LTD., priority 2004, published 2008)

Assays:
Human μ-opioid (MOP) = target: T1, Human μ-opioid (MOP) (Homo sapiens, UniProt P35372); test: Radioligand binding, human μ-opioid (MOP) membranes, FlashPlate, [3H]-Naloxone; conditions: compound at 10 μM, [3H]-Naloxone
T1 construct: purchased Perkin Elmer Biosignal
Summary of the method: (§1)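 Cloned human receptor membranes were coated onto FlashPlate wells and incubated with radioligand and compound (added from a 0.5 mM DMSO daughter plate) for 1 hour at room temperature in the dark. Scintillation counting gave percent inhibition, with DMSO defining total and reference ligand defining non-specific binding.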

[1] = target: T2, Human melanin-concentrating hormone (MCH1) (Homo sapiens, UniProt Q99705); test: Radioligand binding, human melanin-concentrating hormone MCH1 membranes, FlashPlate, [125I]-S36057; conditions: compound at 10 μM
T2 construct: purchased Perkin Elmer Biosignal
Summary of the method: as §1

Human Melanocortin (MC3) = target: T3, Human Melanocortin (MC3) (Homo sapiens, UniProt P41968); test: Radioligand binding, human melanocortin MC3 membranes, FlashPlate, [125I]-NDP-αMSH; conditions: compound at 10 μM, [125I]-NDP-αMSH
T3 construct: purchased Perkin Elmer Biosignal
Summary of the method: as §1

Human neurokinin (NK1) = target: T4, Human neurokinin (NK1) (Homo sapiens, UniProt P25103); test: Radioligand binding, human neurokinin NK1 membranes, filtration, [125I]-Substance P; conditions: compound at 10 μM, [125I]-Substance P
T4 construct: purchased Perkin Elmer Biosignal
Summary of the method: (§2)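 Filtration binding on cloned human receptor membranes (1 Unit/well), [125I]-Substance P for NK1 and [3H]-Diprenorphine for KOP, 1 h at room temperature. Filters PEI-presoaked, washed with cold 50 mM Tris-HCl pH 7.4, counted by scintillation; percent inhibition calculated, reference ligand defining non-specific binding.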

Human δ-opioid (DOP) = target: T5, Human δ-opioid (DOP) (Homo sapiens, UniProt P41143); test: Radioligand binding, human δ-opioid (DOP) membranes, FlashPlate, [3H]-Bremazocine; conditions: compound at 10 μM, [3H]-Bremazocine
T5 construct: purchased Perkin Elmer Biosignal
Summary of the method: as §1

Human opioid (ORL1) = target: T6, Human opioid (ORL1) (Homo sapiens, UniProt P41146); test: Radioligand binding, human opioid ORL1 membranes, FlashPlate, [125I]-Nociceptin; conditions: compound at 10 μM, [125I]-Nociceptin
T6 construct: purchased Perkin Elmer Biosignal
Summary of the method: as §1

Human κ-Opioid (KOP) = target: T7, Human κ-Opioid (KOP) (Homo sapiens, UniProt P41145); test: Radioligand binding, human κ-opioid (KOP) membranes, filtration, [3H]-Diprenorphine; conditions: compound at 10 μM, [3H]-Diprenorphine
T7 construct: purchased Perkin Elmer Biosignal
Summary of the method: as §2

[2] = target: T8, Human neuropeptide Y (NPY-Y1) (Homo sapiens, UniProt P25929); test: Radioligand binding, human neuropeptide Y NPY-Y1 membranes, FlashPlate, [125I]-PYY; conditions: compound at 10 μM, [125I]-PYY
T8 construct: purchased Perkin Elmer Biosignal
T8 sequence (P25929 1-384): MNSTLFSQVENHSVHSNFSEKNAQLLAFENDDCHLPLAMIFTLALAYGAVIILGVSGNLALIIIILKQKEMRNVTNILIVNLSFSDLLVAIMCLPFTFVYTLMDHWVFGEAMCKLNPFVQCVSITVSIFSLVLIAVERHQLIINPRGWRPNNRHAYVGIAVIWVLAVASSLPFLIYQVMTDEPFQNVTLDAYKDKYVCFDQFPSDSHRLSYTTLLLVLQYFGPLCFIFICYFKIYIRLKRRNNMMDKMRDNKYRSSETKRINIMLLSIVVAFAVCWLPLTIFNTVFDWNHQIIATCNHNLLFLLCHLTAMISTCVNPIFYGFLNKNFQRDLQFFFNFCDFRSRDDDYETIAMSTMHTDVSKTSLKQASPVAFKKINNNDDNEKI
Summary of the method: as §1

Human Melanocortin (MC4) = target: T9, Human Melanocortin (MC4) (Homo sapiens, UniProt P32245); test: Radioligand binding, human melanocortin MC4 membranes, FlashPlate, [125I]-NDP-αMSH; conditions: compound at 10 μM, [125I]-NDP-αMSH
T9 construct: purchased Perkin Elmer Biosignal
Summary of the method: as §1

Human melanocortin (MC5) = target: T10, Human melanocortin (MC5) (Homo sapiens, UniProt P33032); test: Radioligand binding, human melanocortin MC5 membranes, FlashPlate, [125I]-NDP-αMSH; conditions: compound at 10 μM, [125I]-NDP-αMSH
T10 construct: purchased Perkin Elmer Biosignal
Summary of the method: as §1

Mouse urotensin (mUR2) = target: T11, Mouse urotensin (mUR2) (Mus musculus, UniProt Q8VIH9); test: Radioligand binding, mouse urotensin mUR2 membranes, FlashPlate, [125I]-Urotensin II; conditions: compound at 10 μM, [125I]-Urotensin II
T11 construct: purchased Perkin Elmer Biosignal
T11 sequence (Q8VIH9 1-385): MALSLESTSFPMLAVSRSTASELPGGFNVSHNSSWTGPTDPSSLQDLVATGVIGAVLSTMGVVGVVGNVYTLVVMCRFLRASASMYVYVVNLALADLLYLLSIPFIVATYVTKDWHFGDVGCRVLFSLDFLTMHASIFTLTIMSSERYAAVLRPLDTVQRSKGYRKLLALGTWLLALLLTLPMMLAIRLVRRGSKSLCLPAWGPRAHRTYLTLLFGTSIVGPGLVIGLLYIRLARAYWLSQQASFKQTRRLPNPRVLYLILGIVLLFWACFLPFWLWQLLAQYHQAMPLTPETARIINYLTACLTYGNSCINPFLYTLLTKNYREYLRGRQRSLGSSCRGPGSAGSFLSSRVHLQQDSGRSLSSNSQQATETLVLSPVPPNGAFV
Summary of the method: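 Cloned mouse urotensin (mUR2) receptor membranes from Perkin Elmer Biosignal were immobilized in FlashPlate microplates using a proprietary coating. Each well got 19.5 μl buffer, then 0.5 μl of DMSO, reference ligand, or compound. Adding 5 μl of [125I]-Urotensin II, diluted to 5× final concentration in binding buffer, started binding. Plates were sealed with TopSeal-A and incubated 1 hour at room temperature in the dark. Wells were counted for 30 seconds each on a TopCount after a 60-second delay, and percentage inhibition was calculated.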

T5 sequence (P41143 whole entry): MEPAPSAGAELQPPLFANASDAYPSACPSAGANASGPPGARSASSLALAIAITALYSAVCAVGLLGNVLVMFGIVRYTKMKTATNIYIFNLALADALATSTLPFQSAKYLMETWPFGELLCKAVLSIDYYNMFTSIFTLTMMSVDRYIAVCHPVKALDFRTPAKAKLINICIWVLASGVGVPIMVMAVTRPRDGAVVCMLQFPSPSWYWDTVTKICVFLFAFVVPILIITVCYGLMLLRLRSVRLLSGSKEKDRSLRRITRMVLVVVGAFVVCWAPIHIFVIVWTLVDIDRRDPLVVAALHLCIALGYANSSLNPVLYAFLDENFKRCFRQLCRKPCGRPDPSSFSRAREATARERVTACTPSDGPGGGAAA
T6 sequence (P41146 whole entry): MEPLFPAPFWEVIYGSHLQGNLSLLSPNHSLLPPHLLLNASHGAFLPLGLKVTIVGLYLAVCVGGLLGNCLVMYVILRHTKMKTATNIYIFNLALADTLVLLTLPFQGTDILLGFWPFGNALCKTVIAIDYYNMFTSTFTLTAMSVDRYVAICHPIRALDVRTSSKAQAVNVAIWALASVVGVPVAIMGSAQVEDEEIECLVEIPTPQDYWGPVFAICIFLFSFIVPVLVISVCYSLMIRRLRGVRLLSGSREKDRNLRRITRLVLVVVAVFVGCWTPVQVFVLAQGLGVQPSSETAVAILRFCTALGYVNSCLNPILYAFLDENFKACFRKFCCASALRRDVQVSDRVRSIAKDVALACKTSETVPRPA
T10 sequence (P33032 whole entry): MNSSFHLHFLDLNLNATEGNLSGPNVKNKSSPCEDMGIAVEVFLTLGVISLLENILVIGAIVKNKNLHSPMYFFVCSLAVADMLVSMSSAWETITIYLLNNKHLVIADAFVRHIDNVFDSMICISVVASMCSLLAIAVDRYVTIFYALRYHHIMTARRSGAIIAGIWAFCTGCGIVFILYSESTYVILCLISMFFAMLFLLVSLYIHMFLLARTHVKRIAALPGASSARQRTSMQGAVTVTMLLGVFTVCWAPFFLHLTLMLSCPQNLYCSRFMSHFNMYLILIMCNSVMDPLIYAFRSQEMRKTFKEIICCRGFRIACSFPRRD
T3 sequence (P41968 whole entry): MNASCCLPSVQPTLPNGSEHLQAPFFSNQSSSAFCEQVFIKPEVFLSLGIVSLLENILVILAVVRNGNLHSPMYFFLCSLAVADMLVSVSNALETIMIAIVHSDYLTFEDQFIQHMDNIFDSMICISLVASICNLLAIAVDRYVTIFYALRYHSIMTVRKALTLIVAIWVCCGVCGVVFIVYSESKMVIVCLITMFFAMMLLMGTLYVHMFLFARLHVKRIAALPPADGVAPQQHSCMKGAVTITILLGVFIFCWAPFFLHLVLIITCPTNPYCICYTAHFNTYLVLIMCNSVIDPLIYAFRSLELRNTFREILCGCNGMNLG
T2 sequence (Q99705 whole entry): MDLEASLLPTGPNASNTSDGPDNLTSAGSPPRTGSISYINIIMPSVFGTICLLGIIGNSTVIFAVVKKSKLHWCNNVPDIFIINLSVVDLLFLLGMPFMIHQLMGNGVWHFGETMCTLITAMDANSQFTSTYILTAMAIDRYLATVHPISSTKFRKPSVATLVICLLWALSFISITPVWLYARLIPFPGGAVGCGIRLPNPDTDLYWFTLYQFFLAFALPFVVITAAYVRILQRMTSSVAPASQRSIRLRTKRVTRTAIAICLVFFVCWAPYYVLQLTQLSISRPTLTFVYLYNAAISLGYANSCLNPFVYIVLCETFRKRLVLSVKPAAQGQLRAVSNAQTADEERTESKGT
T7 sequence (P41145 whole entry): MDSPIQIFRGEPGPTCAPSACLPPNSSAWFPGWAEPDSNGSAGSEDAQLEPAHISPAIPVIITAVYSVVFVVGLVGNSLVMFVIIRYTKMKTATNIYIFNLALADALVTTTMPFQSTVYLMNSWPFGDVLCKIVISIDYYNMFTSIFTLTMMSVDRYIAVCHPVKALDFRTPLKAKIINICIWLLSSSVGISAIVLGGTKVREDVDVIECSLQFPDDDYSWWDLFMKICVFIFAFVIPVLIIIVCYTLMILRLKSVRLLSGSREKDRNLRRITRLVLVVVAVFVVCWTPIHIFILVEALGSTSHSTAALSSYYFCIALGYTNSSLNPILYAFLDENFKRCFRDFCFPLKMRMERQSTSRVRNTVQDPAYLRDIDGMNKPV
T1 sequence (P35372 whole entry): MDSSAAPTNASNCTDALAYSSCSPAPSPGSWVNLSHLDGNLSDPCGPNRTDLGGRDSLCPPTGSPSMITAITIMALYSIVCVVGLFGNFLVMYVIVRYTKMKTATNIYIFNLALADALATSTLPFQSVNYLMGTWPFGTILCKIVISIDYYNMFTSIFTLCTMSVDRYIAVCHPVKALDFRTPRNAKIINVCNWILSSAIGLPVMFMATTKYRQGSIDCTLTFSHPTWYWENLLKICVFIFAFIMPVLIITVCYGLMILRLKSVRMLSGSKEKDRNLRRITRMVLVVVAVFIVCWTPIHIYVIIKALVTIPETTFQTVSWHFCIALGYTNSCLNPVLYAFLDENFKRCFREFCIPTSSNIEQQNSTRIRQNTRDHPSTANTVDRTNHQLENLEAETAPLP
T4 sequence (P25103 whole entry): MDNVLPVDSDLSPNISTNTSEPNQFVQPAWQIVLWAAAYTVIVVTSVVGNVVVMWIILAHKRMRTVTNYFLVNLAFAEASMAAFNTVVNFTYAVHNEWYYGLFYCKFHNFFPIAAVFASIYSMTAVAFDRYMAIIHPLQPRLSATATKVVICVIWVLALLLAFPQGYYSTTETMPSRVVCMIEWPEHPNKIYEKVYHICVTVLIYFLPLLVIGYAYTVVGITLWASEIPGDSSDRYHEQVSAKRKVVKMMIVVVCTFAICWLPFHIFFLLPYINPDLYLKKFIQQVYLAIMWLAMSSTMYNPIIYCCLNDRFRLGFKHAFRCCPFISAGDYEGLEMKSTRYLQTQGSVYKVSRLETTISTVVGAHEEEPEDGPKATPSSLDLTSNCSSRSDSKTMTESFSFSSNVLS
T9 sequence (P32245 whole entry): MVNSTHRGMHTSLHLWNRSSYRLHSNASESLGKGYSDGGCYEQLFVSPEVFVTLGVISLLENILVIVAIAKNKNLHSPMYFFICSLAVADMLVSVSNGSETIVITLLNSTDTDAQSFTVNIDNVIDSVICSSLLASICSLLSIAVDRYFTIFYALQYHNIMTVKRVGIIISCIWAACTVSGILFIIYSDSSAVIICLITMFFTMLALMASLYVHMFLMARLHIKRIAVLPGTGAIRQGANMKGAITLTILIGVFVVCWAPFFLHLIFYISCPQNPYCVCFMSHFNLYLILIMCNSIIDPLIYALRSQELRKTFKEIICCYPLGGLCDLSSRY

N=C(N)NCC(=O)NC1C(OCc2ccc(-c3ccccc3)cc2)OC(COCc2ccc(Cl)cc2)C(O)C1OCc1ccc2ccccc2c1 (stereo not shown) [compound 404]
A7: inhibition of radioligand binding (Human μ-opioid (MOP); human MOP membranes): − (“−” indicates less than 50% inhibition at 10 μM)
A6: inhibition of radioligand binding ([1]; [125I]-S36057, human MCH1 membranes): − (“−” indicates less than 50% inhibition at 10 μM)
A3: inhibition of radioligand binding (Human Melanocortin (MC3); human MC3 membranes): + (“+” indicates greater than 50% inhibition at 10 μM)
A8: inhibition of radioligand binding (Human neurokinin (NK1); human NK1 membranes): + (“+” indicates greater than 50% inhibition at 10 μM)
A1: inhibition of radioligand binding (Human δ-opioid (DOP); human DOP membranes): − (“−” indicates less than 50% inhibition at 10 μM)
A10: inhibition of radioligand binding (Human opioid (ORL1); human ORL1 membranes): + (“+” indicates greater than 50% inhibition at 10 μM)
A2: inhibition of radioligand binding (Human κ-Opioid (KOP); human KOP membranes): − (“−” indicates less than 50% inhibition at 10 μM)
A9: inhibition of radioligand binding ([2]; human NPY-Y1 membranes): − (“−” indicates less than 50% inhibition at 10 μM)
A4: inhibition of radioligand binding (Human Melanocortin (MC4); human MC4 membranes): + (“+” indicates greater than 50% inhibition at 10 μM)
A5: inhibition of radioligand binding (Human melanocortin (MC5); human MC5 membranes): + (“+” indicates greater than 50% inhibition at 10 μM)
A11: inhibition of radioligand binding (Mouse urotensin (mUR2); mouse mUR2 membranes): − (“−” indicates less than 50% inhibition at 10 μM)

COC[C@H]1OC(OCc2cccc(O)c2)[C@H](NC(=O)CCNC(=N)N)[C@@H](OCc2ccc(Cl)cc2)[C@@H]1O (stereo partly shown) [compound 145]
A7 radioligand binding, percentage inhibition (Human μ-opioid (MOP)): − (“−” indicates less than 50% inhibition at 10 μM)
A6 radioligand binding, percentage inhibition ([1]; [125I]-S36057): + (“+” indicates greater than 50% inhibition at 10 μM)
A3 radioligand binding, percentage inhibition (Human Melanocortin (MC3)): − (“−” indicates less than 50% inhibition at 10 μM)
A8 radioligand binding, percentage inhibition (Human neurokinin (NK1)): − (“−” indicates less than 50% inhibition at 10 μM)
A1 radioligand binding, percentage inhibition (Human δ-opioid (DOP)): − (“−” indicates less than 50% inhibition at 10 μM)
A10 radioligand binding, percentage inhibition (Human opioid (ORL1)): − (“−” indicates less than 50% inhibition at 10 μM)
A2 radioligand binding, percentage inhibition (Human κ-Opioid (KOP)): − (“−” indicates less than 50% inhibition at 10 μM)
A9 radioligand binding, percentage inhibition [2]: − (“−” indicates less than 50% inhibition at 10 μM)
A4 radioligand binding, percentage inhibition (Human Melanocortin (MC4)): − (“−” indicates less than 50% inhibition at 10 μM)
A5 radioligand binding, percentage inhibition (Human melanocortin (MC5)): − (“−” indicates less than 50% inhibition at 10 μM)
A11 radioligand binding, percentage inhibition (Mouse urotensin (mUR2)): − (“−” indicates less than 50% inhibition at 10 μM)
